According to patent US20250163119A1, “COMPOUNDS FOR THE TREATMENT OF DIABETES OR OBESITY” (Eli Lilly and Company, priority 2023, published 2025):
*1 amine or outer side, *2 acyl side, *3 side chain or, on linkers, in order; H or OH if unused. Where a SMILES comes first, the peptide text is derived from it. Side-chain parts run from the residue outwards. [ ]: non-standard residue; d: D form. The star is where a group is joined. C20 diacid = O=C(O)CCCCCCCCCCCCCCCCCCC(=O)*; γGlu = O=C(O)[C@H](CCC(=O)[*:2])N[*:1]; NMeI = CC[C@H](C)[C@H](NC)C(=O)O; AEEA = NCCOCCOCC(=O)O

What was measured:
[1] = Association state determination by Sedimentation Velocity Analytical UltraCentrifugation (SV-AUC); assay type: physicochemical
Description: SV-AUC was performed at 20° C. using a Beckman Optima with AN 60 Ti rotor and final rotor speed of 60,000 rpm. Peptides were dialyzed into 5 mM phosphate pH 7 or 1× phosphate buffered saline (PBS) pH 7.2. Samples were adjusted to the desired concentration (0.1 mg/mL, 1 mg/mL, or 10 mg/mL) using relevant buffer as needed. Both samples and buffer were passed through […] PVDF centrifugal filter units. The filtered samples were loaded into the sample sectors of the cells; filtered buffer alone was loaded in the reference sector of the cells. A Wavelength Scan was performed as the first step to choose a suitable lambda […] value for the given compound with 1-1.2 OD at the concentration(s) tested; this value was generally between 225 nm and 254 nm and used for Method Scan in the next step. In the Method Scan, both absorbance and interference detection modules were used. Temperature equilibration was set as first stage with 0 rpm rotor speed for 3 hours. Sedimentation velocity was set as second stage with rotor speed at 60,000 rpm. 300 scans with frequency of 60 seconds or 500 scan counts with frequency of 120 seconds were performed at the designated wavelength. Data were analyzed with SEDFIT software wherein a continuous c(s) distribution model was applied; the setting of relevant parameters is shown in Table 4 and Table 5; sedimentation coefficient (s) values were reported in Svedherg units (S).
The experiment to characterize a compound comprising SEQ ID NO:54 was performed at 300 scan counts with frequency of 60 seconds; for all other tested polypeptides, the experiments were performed at 500 scan counts with frequency of 120 seconds.

[2] = In vivo Diet Induced Obesity (DIO) model, chronic dose administration; parameters: species or system C57BL6 mice; settings: DIO mice; 30 nmol/kg s.c.; pooled data from four studies; mean
Source text: The DIO model represents a pre-diabetic state that is obese. These animals, although not diabetic, display insulin resistance, dyslipidemia, and hepatic steatosis, all characteristics of metabolic syndrome, after being placed on a high fat (60% Kcal from fat) diet for 12 weeks (Surwit R S et al., Diet-induced type II diabetes in C57BL/6J mice. Diabetes 37(9): 1163-7 (1988)). Assessment of body weight change from start of study, fat mass change from start of study, lean mass change from start of study, and fasting glucose or glucose change from vehicle in same study substantially as set forth below. In the case of SEQ ID NO:55 combined with SEQ ID NO:25, tibialis anterior muscle weight at the end of the study is also reported as a measure of effect on muscle weight.
Male C57BL6 mice 22-24 weeks old (on high fat diet since 6 weeks of age, Jackson Laboratories 3800050; Bar Harbor, ME) are housed 1 per cage and maintained on D12492 chow (60% lard high fat diet: Research diets New Brunswick NJ) for 2 weeks in the vivarium and on a normal light cycle prior to experiment start. Animals were randomized by body weight to treatment groups using block randomization. On day 1 of experiment animals and food were weighed and recorded. Animals were separated in to two equal groups and started on separate days (data combined) to simplify the logistics of the study. Animals are given a single subcutaneous injection (s.c.) of the indicated treatment in 40 mM Tris HCl pH8.0+50 mM D-mannitol+0.02% polysorbate 80 on days 1(start), 4, 7, 10, and 13 of experiment at a volume of 10 ml/kg. […]
From study day 1 to study day 14 the animals were weighed daily prior to dose administration. […] The weight was recorded.
On Study Day 14, the animals were fasted overnight (approximately 16-18 hours) by placing them in a clean cage with a clean wire rack without food but allowed access to water, and on day 15 animals were subjected to fasting blood glucose measurement as follows; the tail of the animal was resected and a blood samples was collected and blood glucose was measured using an Accu-Chek Aviva glucose meter (Roche; Indianapolis, IN). Statistical significance ([…] vs. 0 dose; one way ANOVA Dunnett's post hoc) was calculated using GraphPad Prism software (La Jolla, Ca).
On study day 1 and study day 14 body composition was analyzed using Quantitative Nuclear Magnetic Resonance EchoMRI analyzer (EMR-166-s, EchoMRI; Houston Tx). […] Change in mass is calculated by subtraction of […].
On study day 15, following tail bleed for blood glucose, animals were sacrificed by C02 asphyxiation and the right tibialis anterior muscle was dissected. […] Weight was recorded and, in the case of relative weight, Tibialis anterior weight in milligrams was divided by body weight in grams. […]

[3] = 0.1 mg/mL, 1x PBS, pH 7.2, 20° C.

- Mw (SEDFIT), apparent molecular weight [1, 3]: 38787 Da
- Sedimentation Coefficient [1, 3]: 3.5 S
- Sedimentation Coefficient species (% of total) [1, 3]: 89%
SMILES: CC[C@H](C)[C@H](NC)C(=O)N[C@H](C(=O)N[C@@H](CC(C)C)C(=O)N[C@@H](CO)C(=O)N[C@@H](CC(C)C)C(=O)N[C@@H](CC(=O)O)C(=O)N[C@H](C(=O)N1CCC[C@H]1C(=O)N[C@H](C(=O)NCC(=O)N[C@@H](CC(C)C)C(=O)N[C@@H](CC(C)C)C(=O)N[C@@H](CCC(N)=O)C(=O)N[C@H](C(=O)N[C@@H](CC(C)C)C(=O)N[C@@H](CC(C)C)C(=O)N[C@@H](CCC(=O)O)C(=O)N[C@@H](CCC(N)=O)C(=O)N[C@@H](CCC(=O)O)C(=O)N[C@@H](CCCCN)C(=O)N[C@@H](CCC(N)=O)C(=O)N[C@@H](CCC(=O)O)C(=O)N[C@@H](CCCCN)C(=O)N[C@@H](CCC(=O)O)C(=O)N[C@@H](CCCCN)C(=O)N[C@@H](CCC(N)=O)C(=O)N[C@@H](CCC(N)=O)C(=O)N[C@@H](C)C(=O)N[C@@H](CCCCNC(=O)COCCOCCNC(=O)COCCOCCNC(=O)CC[C@H](NC(=O)CC[C@H](NC(=O)CCCCCCCCCCCCCCCCCCC(=O)O)C(=O)O)C(=O)O)C(=O)N[C@H](C(=O)N[C@@H](CC(N)=O)C(=O)N[C@@H](C)C(=O)N[C@@H](CCC(N)=O)C(=O)N[C@H](C(=O)N[C@@H](CC(C)C)C(=O)N[C@@H](C)C(=O)N[C@@H](CCC(N)=O)C(=O)N[C@H](C(N)=O)C(C)C)[C@@H](C)CC)[C@@H](C)O)[C@@H](C)CC)[C@@H](C)CC)C(C)C)C(C)C [SEQ ID NO: 54] (H-[NMeI]VLSLDVPIGLLQILLEQEKQEKEKQQAK([AEEA-AEEA-γGlu-γGlu-C20 diacid])TNAQILAQV-NH2)
- self-association state from sedimentation coefficients ([1]; 0.1, 1 and 10 mg/mL for SEQ ID NO:54): higher order oligomers were the major species
- Fat mass change [2]: -4.05 g
- body weight change [2]: -3.75 g
- fasting blood glucose (% reduction from vehicle) [2]: 37.01%
- lean mass change [2]: 0.60 g
